The target in assay [1] is T1, DCAF15 (DDA1-DDB1ΔB-DCAF15Δpro) (Homo sapiens, UniProt Q66K64, DEL276-383).
T1 construct: made in house; host or cells: Sf9 (Bac-to-Bac baculovirus)
The experiment in a line: DCAF15 displacement assay (displacement FRET, probe PT7795). It counts as binding. The text has this: (§1) Proteins used for the assays were as follows: Human DDA1 (UniProt:Q9BW61), DDB1 (UniPro: Q16531), and DCAF15 (UniProt: Q66K64) coding sequences were cloned into pFastBac1 vectors and were co-expressed in Sf9 cells using Bac-to-Bac baculovirus expression system (Thermo Fisher Scientific). The expression construct for DCAF15 includes a N-terminal His6-tag to facilitate the purification.
DCAF15 Displacement Assay (Displacement FRET KD)
Synthesis of the probe PT7795 is described in the article.
Binding of PT7795 to DDA1-DDB1AB-DCAF15Δpro was measured by the FRET signal between europium-labeled anti-His antibody (AD0205, Perkin Elmer) that is associated with His-tagged DCAF15 and ALX647 moiety in PT7795. […] After equilibrating for 2-3 hours at 4° C., the plate was removed from the incubator, briefly spun, then read on a Spark 10 (Tecan) at the excitation/emission wavelength of 340 nm/615 nm and 340 nm/665 nm.
Binding of compounds in this disclosure to DCAF15 was measured in a competition by the displacement of PT7795. The concentration of PT7795 was kept at 300 nM while the concentration of a compound was varied from 0.01 to 100 μM. The incubation time was increased to 18 hours for enhanced signal to noise level.
F=Fmin+(Fmax−Fmin)/(1+10^(logIC50−log[Compound])^n) (Equation 2)
The Kds can then be calculated from IC50s using Equation 3 (Cheng-Prusoff equation).

Assay [2] addresses T2, DCAF15 RBM39 ternary complex (Homo sapiens, UniProt Q14498+Q66K64, DEL276-383).
T2 construct: Amino acids 150 to 331 of RBM39 were cloned into pGEX4T3; GST (from the pGEX4T3 vector, own knowledge) followed by a TEV cleavage site (N); made in house; host or cells: Sf9 baculovirus (DDB1ΔB/DCAF15); E. coli (RBM39 R1R2)
Description: DCAF15 RBM39 complex formation assay (FRET). It counts as biochemical.
From the text: as §1
DCAF15 RBM39 Complex Formation Assay
LANCE Eu-W1024 Anti-6×His and SureLight Allophycocyanin-anti-FLAG antibodies were purchased from Perkin Elmer. Human DDB1DB and His-tagged DCAF15 were co-expressed in baculovirus/sf9 system. […] The His-tagged DCAF15 contains six histidine residues directly preceding the DCAF15 sequence without any linker. An RBM39 fragment containing RRM1 and RRM2 was expressed in E. coli.
A compound of the present disclosure in DMSO (2 μL) was transferred to a 384-well assay plate. Compound was added in 14 points, 3-fold serial dilution (1 μM to 0.6 pico molar) in DMSO. […] FRET assay buffer (25 mM HEPES, pH 7.5, 100 mM NaCl, […], 0.5 mM TCEP, 0.005% Tween-20, 0.2 nM Eu-W1024 Anti-6×His, 50 nM SureLight Allophycocyanin-anti-FLAG, 20 nM DDB1DB/DCAF15, 50 nM RBM39 R1R2) was added and the resulting solution was incubated overnight at 4° C. […] Low signal controls containing no compound and high signal controls containing 10 mM indisulam were measured for each plate.
EC50 values were calculated using Dotmatics template equation for 4-parameter fit.
Results are expressed as % formation using the following equation: […]

Setting [3] is: displacement of PT7795 (300 nM), compound 0.01 to 100 μM, 18 hours incubation, read-out: DCAF15 displacement IC50.
Where [4] appears, read: FRET ratio, 20 nM DDB1DB/DCAF15, 50 nM RBM39 R1R2, overnight at 4° C., read-out: DCAF15 RBM39 ternary complex EC50.

Read-outs that look alike come from different tables or passages of the source.

T2 sequence (Q66K64 with tags, fused parts or gaps DEL276-383): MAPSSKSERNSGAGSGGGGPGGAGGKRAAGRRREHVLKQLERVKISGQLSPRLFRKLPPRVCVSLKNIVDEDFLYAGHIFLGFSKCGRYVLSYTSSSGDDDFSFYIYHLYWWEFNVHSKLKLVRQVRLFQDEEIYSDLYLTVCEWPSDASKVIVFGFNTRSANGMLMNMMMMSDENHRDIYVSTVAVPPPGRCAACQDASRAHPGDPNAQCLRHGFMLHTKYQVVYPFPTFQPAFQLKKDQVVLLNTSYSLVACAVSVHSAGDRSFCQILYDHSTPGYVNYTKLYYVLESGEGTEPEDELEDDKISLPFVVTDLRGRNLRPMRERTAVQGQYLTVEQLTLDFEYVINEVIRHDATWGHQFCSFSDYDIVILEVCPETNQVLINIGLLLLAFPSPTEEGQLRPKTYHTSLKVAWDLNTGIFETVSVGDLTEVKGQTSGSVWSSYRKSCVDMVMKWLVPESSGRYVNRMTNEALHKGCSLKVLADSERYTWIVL
T2 sequence (Q14498 150-331, stated change not applied): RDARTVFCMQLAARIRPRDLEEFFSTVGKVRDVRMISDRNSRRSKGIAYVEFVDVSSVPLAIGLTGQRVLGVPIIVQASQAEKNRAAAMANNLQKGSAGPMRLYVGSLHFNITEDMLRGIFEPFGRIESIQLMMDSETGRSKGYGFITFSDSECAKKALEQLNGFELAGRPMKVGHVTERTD

Turning to `O=S1(=O)Nc2c(cc(Cl)c3c(Cl)c[nH]c23)CN1CC1CCCNC1` (centres unmarked) [Compound 90, 6,7-dichloro-3-(piperidin-3-ylmethyl)-1,3,4,9-tetrahydro-[1,2,6] thiadiazino[4,3-g]indole 2,2-dioxide], in assay [1], the IC50 came out at 0.274 µM. The EC50 in assay [2] worked out at 0.001 µM.

`COCCN1Cc2cc(F)c3c(C#N)c[nH]c3c2NS1(=O)=O` [Compound 99, 6-fluoro-3-(2-methoxyethyl)-1,3,4,9-tetrahydro-[1,2,6] thiadiazino[4,3-g]indole-7-carbonitrile 2,2-dioxide]: the IC50 in assay [1] (setting [3]) is 30.8 µM. In addition, the EC50 in assay [2] (setting [4]) was 0.212 µM.

As for `O=C(CN1Cc2cc(Cl)c3c(Cl)c[nH]c3c2NS1(=O)=O)N1CCOCC1` [Compound 92, 2-(6,7-dichloro-2,2-dioxido-4,9-dihydro-[1,2,6]thiadiazino[4,3-g]indol-3(1H)-yl)-1-morpholinoethan-1-one], the concentration for half-maximal inhibition (IC50) in assay [1] (setting [3]) worked out at 0.965 µM. Moreover, in assay [2] (setting [4]), the concentration giving a half-maximal response (EC50) turned out to be 0.0007 µM.

Take `O=c1[nH]ccc(CN2Cc3cc(Cl)c4c(Cl)c[nH]c4c3NS2(=O)=O)c1Cl` [Compound 97, 3-chloro-4-((6,7-dichloro-2,2-dioxido-4,9-dihydro-[1,2,6]thiadiazino [4,3-g]indol-3(1H)-yl)methyl)pyridin-2(1H)-one]: the concentration giving a half-maximal response (EC50) in assay [2] (setting [4]) worked out at 0.0017 µM.

`COCCN1Cc2ccc3c(C#N)c[nH]c3c2NS1(=O)=O` [Compound 100, 3-(2-methoxyethyl)-1,3,4,9-tetrahydro-[1,2,6] thiadiazino[4,3-g]indole-7-carbonitrile 2,2-dioxide]: the IC50 in assay [1] (setting [3]) was at least 100 µM. In addition, in assay [2] (setting [4]), the EC50 was determined as 0.168 µM.

For `O=S1(=O)Nc2c(ccc3c(Cl)c[nH]c23)CN1c1cccnc1` [Compound 82, 7-chloro-3-(pyridin-3-yl)-1,3,4,9-tetrahydro-[1,2,6]thiadiazino[4,3-g]indole 2,2-dioxide], the IC50 in assay [1] (setting [3]) stood at 3.32 µM. For the same compound, the 50% effective concentration (EC50) in assay [2] (setting [4]) came to 0.0011 µM.

Turning to `C=CCN1Cc2cc(Cl)c3c(Cl)c[nH]c3c2NS1(=O)=O` [Compound 93, 3-allyl-6,7-dichloro-1,3,4,9-tetrahydro-[1,2,6] thiadiazino[4,3-g]indole 2,2-dioxide], the IC50 in assay [1] (setting [3]) came to 0.773 µM. Further, in assay [2] (setting [4]), the EC50 was 0.0016 µM.

As to `Cn1c(CN2Cc3cc(Cl)c4c(Cl)c[nH]c4c3NS2(=O)=O)cccc1=O` [Compound 62, 6-((6,7-dichloro-2,2-dioxido-4,9-dihydro-[1,2,6]thiadiazino[4,3-g]indol-3(1H)-yl)methyl)-1-methylpyridin-2(1H)-one], the IC50 in assay [1] (setting [3]) came to 1.07 µM. For the same compound, in assay [2] (setting [4]), the half-maximal effective concentration (EC50) came to 0.155 µM.

Consider `CC(=O)N1CCCC(CN2Cc3cc(Cl)c4c(Cl)c[nH]c4c3NS2(=O)=O)C1` (centres unmarked) [Compound 91, 1-(3-((6,7-dichloro-2,2-dioxido-4,9-dihydro-[1,2,6]thiadiazino[4,3-g]indol-3(1H)-yl)methyl)piperidin-1-yl) ethan-1-one], for which the half-inhibitory concentration (IC50) in assay [1] (setting [3]) stood at 0.0518 µM. In addition, in assay [2] (setting [4]), the EC50 is 0.0004 µM.

Take `Cn1ccc(CN2Cc3cc(Cl)c4c(Cl)c[nH]c4c3NS2(=O)=O)cc1=O` [Compound 61, 4-((6,7-dichloro-2,2-dioxido-4,9-dihydro-[1,2,6]thiadiazino[4,3-g]indol-3(1H)-yl)methyl)-1-methylpyridin-2(1H)-one]: the IC50 in assay [1] (setting [3]) was 1.24 µM. The EC50 in assay [2] (setting [4]) stood at 0.123 µM.

For the compound `O=S1(=O)Nc2c(cc(Cl)c3c(Cl)c[nH]c23)CN1CC1CCCO1` (centres unmarked) [Compound 89, 6,7-dichloro-3-((tetrahydrofuran-2-yl)methyl)-1,3,4,9-tetrahydro-[1,2,6] thiadiazino[4,3-g]indole 2,2-dioxide], in assay [1] (setting [3]), the half-maximal inhibitory concentration (IC50) was 0.574 µM. In assay [2] (setting [4]), the concentration giving a half-maximal response (EC50) amounted to 0.0008 µM.

For `Nc1ccc(CN2Cc3cc(Cl)c4c(Cl)c[nH]c4c3NS2(=O)=O)cc1` [Compound 78, 3-(4-aminobenzyl)-6,7-dichloro-1,3,4,9-tetrahydro-[1,2,6]thiadiazino[4,3-g]indole 2,2-dioxide], in assay [1] (setting [3]), the IC50 was found to be 1.17 µM. Moreover, in assay [2] (setting [4]), the EC50 is 0.0007 µM.

Take `COCCN1Cc2ccc3c(Cl)c[nH]c3c2NS1(=O)=O` [Compound 81, 7-chloro-3-(2-methoxyethyl)-1,3,4,9-tetrahydro-[1,2,6] thiadiazino[4,3-g]indole 2,2-dioxide]: the half-inhibitory concentration (IC50) in assay [1] (setting [3]) was found to be 32 µM. The EC50 in assay [2] (setting [4]) stood at 0.0177 µM.

For the compound `O=S1(=O)Nc2c(cc(Cl)c3c(Cl)c[nH]c23)CN1CC1CCCCO1` (centres unmarked) [Compound 96, 6,7-dichloro-3-((tetrahydro-2H-pyran-2-yl)methyl)-1,3,4,9-tetrahydro-[1,2,6] thiadiazino[4,3-g]indole 2,2-dioxide], the IC50 in assay [1] (setting [3]) was determined as 0.215 µM. In addition, the concentration for a half-maximal effect (EC50) in assay [2] (setting [4]) is 0.0012 µM.

Regarding `O=S1(=O)Nc2c(cc(Cl)c3c(Cl)c[nH]c23)CN1CC1CC(O)C1` (centres unmarked) [Compound 88, 6,7-dichloro-3-((3-hydroxycyclobutyl)methyl)-1,3,4,9-tetrahydro-[1,2,6]thiadiazino[4,3-g]indole 2,2-dioxide], the IC50 in assay [1] (setting [3]) amounted to 0.231 µM. Moreover, the EC50 in assay [2] (setting [4]) turned out to be 0.0016 µM.

For `O=S1(=O)Nc2c(cc(Cl)c3c(Cl)c[nH]c23)CN1CC1CCCOC1` (centres unmarked) [Compound 95, 6,7-dichloro-3-((tetrahydro-2H-pyran-3-yl)methyl)-1,3,4,9-tetrahydro-[1,2,6] thiadiazino[4,3-g]indole 2,2-dioxide], the IC50 in assay [1] (setting [3]) worked out at 0.0949 µM. Further, in assay [2] (setting [4]), the 50% effective concentration (EC50) was determined as 0.0012 µM.

In the case of `COCCN1Cc2cc(F)c3c(Cl)c[nH]c3c2NS1(=O)=O` [Compound 79, 7-chloro-6-fluoro-3-(2-methoxyethyl)-1,3,4,9-tetrahydro-[1,2,6] thiadiazino[4,3-g]indole 2,2-dioxide], in assay [1] (setting [3]), the half-inhibitory concentration (IC50) amounted to 19.5 µM. Further, the EC50 in assay [2] (setting [4]) stood at 0.0089 µM.

For the compound `O=c1cc(CN2Cc3cc(Cl)c4c(Cl)c[nH]c4c3NS2(=O)=O)c(Cl)c[nH]1` [Compound 98, 5-chloro-4-((6,7-dichloro-2,2-dioxido-4,9-dihydro-[1,2,6]thiadiazino [4,3-g]indol-3(1H)-yl)methyl)pyridin-2(1H)-one], the IC50 in assay [1] (setting [3]) was 0.181 µM. The concentration for a half-maximal effect (EC50) in assay [2] (setting [4]) is 0.0023 µM.

`CS(=O)(=O)CCCN1Cc2cc(Cl)c3c(Cl)c[nH]c3c2NS1(=O)=O` [Compound 77, 6,7-dichloro-3-(3-(methylsulfonyl)propyl)-1,3,4,9-tetrahydro-[1,2,6] thiadiazino[4,3-g]indole 2,2-dioxide]: in assay [1] (setting [3]), the IC50 came out at 0.68 µM. Further, the EC50 in assay [2] (setting [4]) came to 0.0008 µM.

Turning to `O=S1(=O)Nc2c(ccc3c(Cl)c[nH]c23)CN1C1CCCOC1` (centres unmarked) [Compound 80, 7-chloro-3-(tetrahydro-2H-pyran-3-yl)-1,3,4,9-tetrahydro-[1,2,6]thiadiazino[4,3-g]indole 2,2-dioxide], the IC50 in assay [1] (setting [3]) was 1.81 µM. The EC50 in assay [2] (setting [4]) worked out at 0.0182 µM.

`O=S1(=O)Nc2c(cc(Cl)c3c(Cl)c[nH]c23)CN1CCC1COC1` [Compound 94, 6,7-dichloro-3-(2-(oxetan-3-yl)ethyl)-1,3,4,9-tetrahydro-[1,2,6] thiadiazino[4,3-g]indole 2,2-dioxide]: in assay [1] (setting [3]), the IC50 was determined as 0.362 µM. The EC50 in assay [2] (setting [4]) turned out to be 0.0029 µM.

For the origin of these results see US20240294548A1, “TRICYCLIC SULTAMS AND SULFAMIDES AS ANTITUMOR AGENTS” (PELOTON THERAPEUTICS INC., priority 2021, published 2024).
